{"source": "patent US11174251B2", "about": "“Compositions and methods for inhibition of the JAK pathway” (Rigel Pharmaceuticals, Inc., priority 2010, dated 2021)", "target": "T1, JAK3 (Homo sapiens, UniProt P52333)", "T1 construct": "The Ramos B-cell line was acquired from ATCC (ATCC Catalog No. CRL-1596); host or cells: Ramos B-cell line (human)", "T1 sequence (P52333 1-1124)": "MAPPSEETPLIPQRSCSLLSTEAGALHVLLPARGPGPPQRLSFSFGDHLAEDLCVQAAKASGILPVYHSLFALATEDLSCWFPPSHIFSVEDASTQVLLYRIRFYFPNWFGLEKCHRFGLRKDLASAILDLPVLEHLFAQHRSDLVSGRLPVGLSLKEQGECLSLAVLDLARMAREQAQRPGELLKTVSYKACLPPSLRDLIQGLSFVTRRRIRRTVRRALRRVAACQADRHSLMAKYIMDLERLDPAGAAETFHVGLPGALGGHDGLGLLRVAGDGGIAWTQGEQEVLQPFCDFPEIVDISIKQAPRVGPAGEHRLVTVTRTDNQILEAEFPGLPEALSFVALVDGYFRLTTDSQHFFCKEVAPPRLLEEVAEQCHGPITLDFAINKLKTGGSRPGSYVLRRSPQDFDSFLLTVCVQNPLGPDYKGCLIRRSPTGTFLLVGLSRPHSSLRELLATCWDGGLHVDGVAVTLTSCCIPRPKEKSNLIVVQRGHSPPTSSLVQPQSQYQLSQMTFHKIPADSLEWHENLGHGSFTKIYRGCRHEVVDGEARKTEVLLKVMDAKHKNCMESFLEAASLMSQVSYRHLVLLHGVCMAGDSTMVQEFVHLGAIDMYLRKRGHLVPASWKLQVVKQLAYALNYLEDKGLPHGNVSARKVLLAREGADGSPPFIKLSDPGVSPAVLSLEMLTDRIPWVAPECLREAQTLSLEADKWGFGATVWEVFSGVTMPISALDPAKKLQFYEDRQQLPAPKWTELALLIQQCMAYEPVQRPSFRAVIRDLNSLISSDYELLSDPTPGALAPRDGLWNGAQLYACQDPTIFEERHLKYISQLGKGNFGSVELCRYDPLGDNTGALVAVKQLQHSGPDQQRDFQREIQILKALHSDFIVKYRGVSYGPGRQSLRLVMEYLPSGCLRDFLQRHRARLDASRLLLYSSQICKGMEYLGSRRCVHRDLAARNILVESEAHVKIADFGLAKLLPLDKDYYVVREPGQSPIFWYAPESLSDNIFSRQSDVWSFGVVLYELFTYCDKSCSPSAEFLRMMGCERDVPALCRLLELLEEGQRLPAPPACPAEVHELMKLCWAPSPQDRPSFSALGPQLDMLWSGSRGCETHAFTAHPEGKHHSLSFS", "experiment": "Assay for CD23 expression on Ramos B-cells stimulated by IL-4 (Table IV: ability to inhibit JAK3 activity)", "type": "cell-based", "details": "tested under conditions described in Example 3 (so in the source)", "summary_of_the_method": "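IL-4-induced CD23 surface expression on human Ramos B cells, detected by flow cytometry after 20–24 h stimulation (IL-4 final 50 units/mL). Compound or DMSO added 1 h beforehand at 37 °C; cells kept in RPMI with 5% serum.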", "note": "Counter-ions that a name gives are not always drawn."}
{"compound": "NC(=O)c1ccc(Nc2ncc([N+](=O)[O-])c(Nc3ccc4oc(=O)[nH]c4c3)n2)cc1", "note": "[Compound I-60, 4-(5-nitro-4-(2-oxo-2,3-dihydrobenzo[d]oxazol-5-ylamino)pyrimidin-2-ylamino)benzamide trifluoroacetate salt]", "values": [{"measurement": "IC50", "value": "> 10000", "unit": "nM"}]}
{"compound": "Cc1cnc(Nc2cc(C)c(C)c(C)c2)nc1Nc1cc(CN2CCCC2)c2oc(=O)[nH]c2c1", "note": "[Compound I-91, 5-(2-(3,4,5-trimethylphenylamino)-5-methylpyrimidin-4-ylamino)-7-((pyrrolidin-1-yl)methyl)benzo[d]oxazol-2(3H)-one]", "values": [{"measurement": "IC50", "value": "500 to 5000", "unit": "nM"}]}
{"compound": "O=c1[nH]c2cc(Nc3nc(Nc4ccccc4)ncc3[N+](=O)[O-])ccc2o1", "note": "[Compound I-41, 5-(5-nitro-2-(phenylamino)pyrimidin-4-ylamino)benzo[d]oxazol-2(3H)-one trifluoroacetate salt]", "values": [{"measurement": "IC50", "value": "5000 to 10000", "unit": "nM"}]}
{"compound": "O=c1[nH]c2cc(Nc3nc(Nc4cc(F)cc(N5CCOCC5)c4)ncc3F)ccc2o1", "note": "[Compound I-169, 5-(2-(3-fluoro-5-morpholinophenylamino)-5-fluoropyrimidin-4-ylamino)benzo[d]oxazol-2(3H)-one ditrifluoroacetate salt]", "values": [{"measurement": "IC50", "value": "< 500", "unit": "nM"}]}
{"compound": "O=c1[nH]c2cc(Nc3nc(Nc4cc(F)cc(F)c4)ncc3Cl)ccc2o1", "note": "[Compound I-14, 5-(5-chloro-2-(3,5-difluorophenylamino)pyrimidin-4-ylamino)benzo[d]oxazol-2(3H)-one trifluoroacetate salt]", "values": [{"measurement": "IC50", "value": "< 500", "unit": "nM"}]}
{"compound": "Cc1cnc(Nc2ncc(C)c(Nc3ccc4oc(=O)[nH]c4c3)n2)cc1C", "note": "[II-14, N2-(4,5-dimethylpyridin-2-yl)-5-methyl-N4-(2-oxo-2,3-dihydro-1,3-benzoxazol-5-yl)-2,4-pyrimidinediamine]", "values": [{"measurement": "IC50", "value": "> 10000", "unit": "nM"}]}
{"compound": "COc1cc(Nc2ncc(F)c(Nc3ccc4oc(=O)[nH]c4c3)n2)cc(C(F)(F)F)c1", "note": "[Compound I-211, 5-fluoro-N2-(3-methoxy-5-trifluoromethyl)phenyl-N4-(2-oxo-2,3-dihydro-1,3-benzoxazol-5-yl)-2,4-pyrimidinediamine]", "values": [{"measurement": "IC50", "value": "< 500", "unit": "nM"}]}
{"compound": "COc1cccc(Nc2ncc(Br)c(Nc3ccc4oc(=O)[nH]c4c3)n2)c1F", "note": "[Compound I-22, 5-(5-bromo-2-(2-fluoro-3-methoxyphenylamino)pyrimidin-4-ylamino)benzo[d]oxazol-2(3H)-one trifluoroacetate salt]", "values": [{"measurement": "IC50", "value": "< 500", "unit": "nM"}]}
{"compound": "Cc1cnc(Nc2cc(C)c(C)c(C)c2)nc1Nc1cc(-c2ccc3c(c2)OCO3)c2oc(=O)[nH]c2c1", "note": "[Compound I-88, 5-(2-(3,4,5-trimethylphenylamino)-5-methylpyrimidin-4-ylamino)-7-(benzo[d][1,3]dioxol-6-yl)benzo[d]oxazol-2(3H)-one]", "values": [{"measurement": "IC50", "value": "> 10000", "unit": "nM"}]}
{"compound": "COc1ccc(Nc2ncc(F)c(Nc3ccc4oc(=O)[nH]c4c3)n2)cc1OCC(=O)NC1CC1", "note": "[Compound I-213, N2-[3-(cyclopropylaminocarbonylmethoxy)-4-methoxy]phenyl-5-fluoro-N4-(2-oxo-2,3-dihydro-1,3-benzoxazol-5-yl)-2,4-pyrimidinediamine]", "values": [{"measurement": "IC50", "value": "< 500", "unit": "nM"}]}
{"compound": "COC(=O)c1cnc(Nc2ccc(C(N)=O)cc2)nc1Nc1ccc2oc(=O)[nH]c2c1", "note": "[Compound I-54, 2-(4-Carbamoyl-phenylamino)-4-(2-oxo-2,3-dihydro-benzooxazol-5-ylamino)-pyrimidine-5-carboxylic acid methyl ester trifluoroacetate salt]", "values": [{"measurement": "IC50", "value": "> 10000", "unit": "nM"}]}
{"compound": "COc1c(F)ccc(Nc2ncc(F)c(Nc3cc(C)c4oc(=O)[nH]c4c3)n2)c1F", "note": "[Compound I-192, 5-(2-(2,4-difluoro-3-methoxyphenylamino)-5-fluoropyrimidin-4-ylamino)-7-methylbenzo[d]oxazol-2(3H)-one trifluoroacetate salt]", "values": [{"measurement": "IC50", "value": "500 to 5000", "unit": "nM"}]}
{"compound": "COc1cc(Nc2ncc(F)c(Nc3cc(F)c4oc(=O)[nH]c4c3)n2)cc(C)c1OC", "note": "[Compound I-184, 5-(2-(3,4-dimethoxy-5-methylphenylamino)-5-fluoropyrimidin-4-ylamino)-7-fluorobenzo[d]oxazol-2(3H)-one trifluoroacetate salt]", "values": [{"measurement": "IC50", "value": "< 500", "unit": "nM"}]}
{"compound": "COc1cc(Nc2ncc(F)c(Nc3cc(C)c4oc(=O)[nH]c4c3)n2)cc(C)c1C", "note": "[Compound I-110, 5-(5-fluoro-2-(3-methoxy-4,5-dimethylphenylamino)pyrimidin-4-ylamino)-7-methylbenzo[d]oxazol-2(3H)-one trifluoroacetate salt]", "values": [{"measurement": "IC50", "value": "< 500", "unit": "nM"}]}
{"compound": "CCc1ccc(Nc2ncc(Cl)c(Nc3ccc4oc(=O)[nH]c4c3)n2)c(F)c1OC", "note": "[Compound I-71, 5-(5-chloro-2-(4-ethyl-2-fluoro-3-methoxyphenylamino)pyrimidin-4-ylamino)benzo[d]oxazol-2(3H)-one trifluoroacetate salt]", "values": [{"measurement": "IC50", "value": "< 500", "unit": "nM"}]}
{"compound": "COc1cc(Nc2ncc(F)c(Nc3cc(C)c4oc(=O)[nH]c4c3)n2)cc(C)c1F", "note": "[Compound I-190, 5-(2-(4-fluoro-3-methoxy-5-methylphenylamino)-5-fluoropyrimidin-4-ylamino)-7-methylbenzo[d]oxazol-2(3H)-one trifluoroacetate salt]", "values": [{"measurement": "IC50", "value": "500 to 5000", "unit": "nM"}]}
{"compound": "Cc1ccc(Nc2ncc(C)c(Nc3ccc4oc(=O)[nH]c4c3)n2)cc1C(=O)O", "note": "[Compound I-152, N2-(3-carboxy-4-methyl)phenyl-5-methyl-N4-(2-oxo-2,3-dihydro-1,3-benzoxazol-5-yl)-2,4-pyrimidinediamine]", "values": [{"measurement": "IC50", "value": "5000 to 10000", "unit": "nM"}]}
{"compound": "COc1cc(Nc2ncc(C)c(Nc3ccc4oc(=O)n(C)c4c3)n2)cc(C)c1C", "note": "[Compound I-125, 5-(2-(3-methoxy-4,5-dimethylphenylamino)-5-methylpyrimidin-4-ylamino)-3-methylbenzo[d]oxazol-2(3H)-one trifluoroacetate salt]", "values": [{"measurement": "IC50", "value": "< 500", "unit": "nM"}]}
{"compound": "CCOc1cc(Nc2ncc(C)c(Nc3ccc4oc(=O)[nH]c4c3)n2)cc(C)c1C", "note": "[Compound I-103, 5-(2-(3-ethoxy-4,5-dimethylphenylamino)-5-methylpyrimidin-4-ylamino)benzo[d]oxazol-2(3H)-one ditrifluoroacetate salt]", "values": [{"measurement": "IC50", "value": "< 500", "unit": "nM"}]}
{"compound": "COCCOc1c(C)ccc(Nc2ncc(C)c(Nc3ccc4oc(=O)[nH]c4c3)n2)c1F", "note": "[Compound I-53, 5-{2-[2-Fluoro-3-(2-methoxy-ethoxy)-4-methyl-phenylamino]-5-methyl-pyrimidin-4-ylamino}-3H-benzooxazol-2-one]", "values": [{"measurement": "IC50", "value": "< 500", "unit": "nM"}]}
{"compound": "NC(=O)c1ccc(Nc2ncc(Cl)c(Nc3ccc4oc(=O)[nH]c4c3)n2)cc1", "note": "[Compound I-11, 4-(5-chloro-4-(2-oxo-2,3-dihydrobenzo[d]oxazol-5-ylamino)pyrimidin-2-ylamino)benzamide trifluoroacetate salt]", "values": [{"measurement": "IC50", "value": "< 500", "unit": "nM"}]}
{"compound": "[2H]C([2H])([2H])Oc1cc(C)cc(Nc2ncc(F)c(Nc3ccc4oc(=O)[nH]c4c3)n2)c1", "note": "[Compound I-175, 5-(5-fluoro-2-(3-d3-methoxy-5-methylphenylamino)pyrimidin-4-ylamino)benzo[d]oxazol-2(3H)-one trifluoroacetate salt]", "values": [{"measurement": "IC50", "value": "< 500", "unit": "nM"}]}
{"compound": "COc1cc(Nc2ncc(Cl)c(Nc3ccc4oc(=O)[nH]c4c3)n2)cc(C)c1C", "note": "[Compound I-52, 5-(5-chloro-2-(3-methoxy-4,5-dimethylphenylamino)pyrimidin-4-ylamino)benzo[d]oxazol-2(3H)-one]", "values": [{"measurement": "IC50", "value": "< 500", "unit": "nM"}]}
{"compound": "COc1cc(Nc2ncc([N+](=O)[O-])c(Nc3ccc4oc(=O)[nH]c4c3)n2)cc(C(F)(F)F)c1", "note": "[Compound I-47, 5-(2-(3-methoxy-5-(trifluoromethyl)phenylamino)-5-nitropyrimidin-4-ylamino)benzo[d]oxazol-2(3H)-one trifluoroacetate salt]", "values": [{"measurement": "IC50", "value": "> 10000", "unit": "nM"}]}
{"compound": "CC(NC1CC1)c1ccc(Nc2ncc(F)c(Nc3ccc4oc(=O)[nH]c4c3)n2)cc1", "note": "(stereo not drawn) [Compound I-158, 5-(2-(4-(1-(cyclopropylamino)ethyl)phenylamino)-5-fluoropyrimidin-4-ylamino)benzo[d]oxazol-2(3H)-one formate salt]", "values": [{"measurement": "IC50", "value": "< 500", "unit": "nM"}]}
{"compound": "COc1cc(Nc2ncc(C)c(Nc3ccc4oc(=O)[nH]c4c3)n2)ccn1", "note": "[II-17, N2-(2-methoxypyridin-4-yl)-5-methyl-N4-(2-oxo-2,3-dihydro-1,3-benzoxazol-5-yl)-2,4-pyrimidinediamine]", "values": [{"measurement": "IC50", "value": "< 500", "unit": "nM"}]}
{"compound": "Cc1cc(C)cc(Nc2ncc(Cl)c(Nc3ccc4oc(=O)[nH]c4c3)n2)c1", "note": "[Compound I-10, 5-(5-chloro-2-(3,5-dimethylphenylamino)pyrimidin-4-ylamino)benzo[d]oxazol-2(3H)-one trifluoroacetate salt]", "values": [{"measurement": "IC50", "value": "< 500", "unit": "nM"}]}
